Patent US6060481A, “Method for improving insulin sensitivity using an adenosine receptor antagonist” (priority 1999, dated 2000)

Assays:
[1] = tested on: insulin receptor kinase; assay: Insulin receptor kinase assay of partially purified receptors from gastrocnemius of treated rats; type: in vivo, Zucker rats
Procedure: BWA1433 was administered as previously described, in a suspension of 7 mg/ml methyl cellulose containing 10 mg/ml BWA1433. BWA1433 was supplied as a free acid from Glaxo-Wellcome but was adjusted to pH 8.0 with NaOH prior to use. In this way, treated animals were given 12 mg/kg BWA1433 every 12 hours (±1 hour) for one week.
Insulin receptors were prepared from 100 mg frozen powdered skeletal muscle using lectin affinity chromatography, as taught by Caro, J. Clin. Invest., 79:1330-1337 (1987). Supernatants from detergent (Triton X-100) solubilized muscle were cycled over 0.3 ml bed volume wheat germ agglutinin agarose (WGA) columns, after which the columns were washed thoroughly overnight. The receptors were eluted in one ml of buffer containing 25 mM N-[2-hydroxyethyl]piperazine-N'-[2-ethanesulfonic acid] (HEPES) (pH 7.6), 55 mM NaCl, 11.25 mM KCI, 0.5 mM CaCl2, 0.5 mM MgCl2, 0.5 mM Na3 VO4, 5 mM NaF, 10% glycerol, 0.05% Triton X-100, and 300 mM-acetyl-D-glucosamine. WGA column eluates were aliquoted to avoid multiple freezing/thawing and were stored at -70° C. until use. Columns were thoroughly washed (50-100 bed volumes wash buffer) and reused. Receptors were quantitated by assaying protein and immunoblotting to specifically assess insulin receptor protein.
Insulin receptor kinase activity was determined using a modification of previously published techniques by Debant, et al., Am. […] Papers were blotted, oven-dried, and radioactivity determined by scintillation counting using a Beckman Model LS3801 scintillation counter. Activity was calculated in mUnits receptor kinase/mg of WGA eluate protein. […]
Insulin receptor kinase activity was measured 1) in the basal state in non-insulin-injected animals, 2) in insulin-injected animals without added insulin, and 3) in receptors isolated from insulin injected animals but stimulated in vitro with 1 μM exogenous insulin. […] Intravenous insulin-injection increased the observed activity of the insulin receptor kinase 7- to 12-fold when measured in the absence of insulin added in vitro (FIG. 4A). […]

[2] = biological target: T1, human A2A adenosine receptor (Homo sapiens, UniProt P29274); assay: Binding constants against cloned and expressed human adenosine receptor subtypes (A2A); conditions: read-out: Binding constant (KD) A2A
T1 construct: expressed in transfected cells

[3] = biological target: T2, human A1 adenosine receptor (Homo sapiens, UniProt P30542); assay: Binding constants against cloned and expressed human adenosine receptor subtypes (A1); conditions: read-out: Binding constant (KD) A1
T2 construct: expressed in transfected cells
T2 sequence (P30542 1-326): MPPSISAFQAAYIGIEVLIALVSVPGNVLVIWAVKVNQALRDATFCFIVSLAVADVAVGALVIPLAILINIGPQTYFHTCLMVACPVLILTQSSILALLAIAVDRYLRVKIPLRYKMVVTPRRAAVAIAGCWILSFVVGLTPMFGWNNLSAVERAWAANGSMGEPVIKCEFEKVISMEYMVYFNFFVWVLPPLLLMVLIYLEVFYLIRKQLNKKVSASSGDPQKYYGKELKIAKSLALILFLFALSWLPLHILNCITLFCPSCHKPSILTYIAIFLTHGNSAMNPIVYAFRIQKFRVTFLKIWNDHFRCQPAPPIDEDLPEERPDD

T1 sequence (P29274 whole entry): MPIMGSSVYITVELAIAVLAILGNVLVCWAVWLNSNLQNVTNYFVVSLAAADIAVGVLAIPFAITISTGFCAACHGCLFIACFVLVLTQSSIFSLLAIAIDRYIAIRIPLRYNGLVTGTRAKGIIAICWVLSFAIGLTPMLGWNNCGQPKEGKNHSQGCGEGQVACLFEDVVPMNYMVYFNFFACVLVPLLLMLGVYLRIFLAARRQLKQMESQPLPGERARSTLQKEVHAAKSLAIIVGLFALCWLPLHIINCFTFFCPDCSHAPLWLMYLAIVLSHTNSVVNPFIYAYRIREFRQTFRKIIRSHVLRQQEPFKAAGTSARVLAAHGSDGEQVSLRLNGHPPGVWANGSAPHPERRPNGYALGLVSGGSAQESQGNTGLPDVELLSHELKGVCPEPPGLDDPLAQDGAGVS

## CCCn1c(=O)c2[nH]c(-c3ccc(C=CC(=O)O)cc3)nc2n(CCC)c1=O [BWA1433, 1,3-dipropyl-8-(p-acrylic)phenylxanthine]
[1]; lean rats, insulin in vivo plus 1 μM insulin in vitro
  Insulin receptor kinase activity: no significant influence
[1]; obese animals, insulin injected in vivo, no insulin added in vitro
  Insulin receptor kinase activity: small but significant increase
[1]; obese rats, insulin in vivo plus 1 μM insulin in vitro
  Insulin receptor kinase activity: increased
[2]
  Kd: 190 nM
[3]
  Kd: 140 nM
